Reference: patent US10071998B2, “Iminothiadiazine dioxides bearing an amine-linked substituent as BACE inhibitors, compositions, and their use” (Merck Sharp & Dohme Corp., priority 2015, dated 2018)
Read-outs that look alike come from different tables or passages of the source.

What was measured:
[1] = test system: CSF levels of Aβ1-40 (Aβ40); experiment: Aβ Reduction In Vivo (rat CSF Aβ40); conditions: 3 h, 10 mg/kg oral gavage
Protocol: Assay 3: Aβ Reduction In Vivo
The in vivo efficacy and/or potency of BACE inhibitors (test compounds) can be evaluated using a variety of animal models, including mouse, rat, dog, and monkey, and these animals can be wild type, transgenic, or gene knockout animals.
Generally, animals are administered (by oral gavage, intravenous injection, or by other suitable route) a test compound in doses ranging from, for example, 0.1 mg/kg (mg of compound per kg of animal body weight) to 100 mg/kg formulated in vehicles, such as cyclodextrin, phosphate buffer, hydroxypropyl methylcellulose or other suitable vehicles. One to twenty-four hours following the administration of compound, animals are sacrificed, and tissues (for example, brain, cerebrospinal fluid (CSF), and/or plasma) are collected for analysis of Aβ levels and/or test compound concentrations (Dovey et al., 2001, Journal of Neurochemistry, 76, 173-181). Tissue samples are processed appropriately and then analyzed for the presence of Aβ by specific sandwich ELISA assays based on electrochemiluminescence (ECL) technology.
For example, in the following assay for which data are reported below, male CD IGS rats (body weight approximately 120 g, Charles River Laboratories, Kingston, N.Y.) were used to asses lowering of CSF levels of Aβ1-40 (Aβ40) in the presence of compounds of the invention. At time 0, animals were administered by oral gavage a test compound at a dose of 10 mg/kg in 20% hydroxypropyl-β-cyclodextrin (dosing volume 5 mL/kg). A separate group of animals received 20% hydroxypropyl-β-cyclodextrin alone to serve as the vehicle control group. Three hours after administration, the rats were euthanized with excess CO2. Immediately following euthanasia, CSF was collected from the cisterna magna and quickly frozen on dry ice. Samples were stored at −80° C. until quantification of Aβ40 levels.
The measurement of endogenous rat Aβ40 in CSF relied on the 585 antibody (Ab585, BioSource, NONO585), which specifically recognizes the N-terminal sequence of rodent Aβ40, and on the monoclonal antibody, G2-10, which specifically recognizes the free C-terminus of Aβ40. Ab585 was labeled with biotin (b-Ab585) by first dialyzing the antibody sample extensively versus PBS (pH 7.8) to remove impurities, followed by dilution to between 1 and 2 mg/mL protein concentration. EZ-Link Sulfo-NHS-LC-Biotin (Pierce) was dissolved in PBS (pH 7.8) at a concentration of 1 mg/mL immediately prior to use. Ab585 was labeled with EZ-Link Sulfo-NHS-LC-biotin using a 10:1 biotin:antibody ratio by incubation at room temperature for 1 hour. The labeling reaction was quenched by addition of 1.0 M glycine to a final concentration of 0.1 M followed by 10 minute incubation at room temperature. Glycine was removed by extensive dialysis versus PBS.
For rat CSF Aβ40 determinations, a calibration curve of various concentrations of synthetic rodent Aβ40 was assayed in parallel with rat CSF samples in duplicate using an avidin-coated 96-well MSD plate (Mesoscale Diagnostics). Either 50 μL of rodent Aβ40 standards diluted in PBS (pH 7.4) supplemented with 1% BSA and 1% Tween-20 (standard diluent buffer) or 40 μL of standard diluent buffer plus 10 μL rat CSF were added to each 96 well avidin-coated plate. To each well was added 50 μL of 0.1 M HEPES (pH 7.5), 2% BSA, 2% Tween-20, 0.3 M NaCl (2× Aβ40 buffer) supplemented with the b-Ab585 capture and ruthenylated-G2-10 detection antibodies diluted to 1 μg/mL and 0.5 μg/mL, respectively. Plates were shaken for 1 min on a microplate shaker, covered to protect from light and incubated overnight (˜16 h) at 4° C. For detection, plates were first washed twice with 100 μL of 1×CSF Aβ40 buffer followed by addition of 160 μL of 1×MSD read buffer-T (Mesoscale Diagnostics) diluted in 1×CSF Aβ40 buffer. Plates were read on a MSD Sector Imager 2400 model (Mesoscale Diagnosotics). […]

[2] = target: Recombinant human soluble BACE-1 catalytic domain (Homo sapiens (Human), UniProt P56817); experiment: BACE-1 Ki Assay (BACE-1 HTRF FRET Assay); type: biochemical
Protocol: Assay 1: BACE-1 Ki Assay (BACE-1 HTRF FRET Assay)
The compounds of the invention were assessed for their ability to inhibit BACE-1 using the following assay.
The following reagents were used in this assay. Na^+-Acetate pH 5.0; 1% Brij-35; Glycerol; Dimethyl Sulfoxide (DMSO); Recombinant human soluble BACE-1 catalytic domain (>95% pure); APP Swedish mutant peptide substrate (QSY7-APP^swe-Eu): QSY7-EISEVNLDAEFC-Europium-amide.
A homogeneous time-resolved FRET assay can be used to determine IC50 values for inhibitors of the soluble human BACE-1 catalytic domain. This assay monitors the increase of 620 nm fluorescence that resulted from BACE-1 cleavage of an APPswedish APP^swe mutant peptide FRET substrate (QSY7-EISEVNLDAEFC-Europium-amide). This substrate contains an N-terminal QSY7 moiety that serves as a quencher of the C-terminal Europium fluorophore (620 nm Em). In the absence of enzyme activity, 620 nm fluorescence is low in the assay and increased linearly over 3 hours in the presence of uninhibited BACE-1 enzyme. Inhibition of BACE-1 cleavage of the QSY7-APP^swe-Eu substrate by inhibitors is manifested as a suppression of 620 nm fluorescence.
Varying concentrations of inhibitors at 3× the final desired concentration in a volume of 10 ul are preincubated with purified human BACE-1 catalytic domain (3 nM in 10 μl) for 30 minutes at 30° C. in reaction buffer containing 20 mM Na-Acetate pH 5.0, 10% glycerol, 0.1% Brij-35 and 7.5% DSMO. Reactions are initiated by addition of 10 μl of 600 nM QSY7-APP^swe-Eu substrate (200 nM final) to give a final reaction volume of 30 μl in a 384 well Nunc HTRF plate. The reactions are incubated at 30° C. for 1.5 hours. The 620 nm fluorescence is then read on a Rubystar HTRF plate reader (BMG Labtechnologies) using a […] delay followed by a 400 millisecond acquisition time window. Inhibitor IC50 values are derived from non-linear regression analysis of concentration response curves. Ki values are then calculated from IC50 values using the Cheng-Prusoff equation using a previously determined […] of 8 μM for the QSY7-APP^swe-Eu substrate at BACE-1. The example compounds of the invention were measured in this assay.

[3] = target: purified human autoBACE-2 (Homo sapiens (Human), UniProt Q9Y5Z0); experiment: BACE-2 Assay (BACE-HTRF assay); type: biochemical; conditions: Table 1; Ki calculated from IC50 with Cheng-Prusoff equation; read-out: BACE2 Ki
Protocol: Inhibitor IC50s, at purified human autoBACE-2 are determined in a time-resolved endpoint proteolysis assay that measures hydrolysis of the QSY7-EISEVNLDAEFC-Eu-amide FRET peptide substrate (BACE-HTRF assay). BACE-mediated hydrolysis of this peptide results in an increase in relative fluorescence (RFU) at 620 nm after excitation with 320 nm light. Inhibitor compounds, prepared at 3× the desired final concentration in 1× BACE assay buffer (20 mM sodium acetate pH 5.0, 10% glycerol, 0.1% Brij-35) supplemented with 7.5% DMSO are pre-incubated with an equal volume of autoBACE-2 enzyme diluted in 1×BACE assay buffer (final enzyme concentration 1 nM) in black 384-well NUNC plates for 30 minutes at 30° C. The assay is initiated by addition of an equal volume of the QSY7-EISEVNLDAEFC-Eu-amide substrate (200 nM final concentration, Km=8 μM […] for autoBACE-2) prepared in 1×BACE assay buffer supplemented with 7.5% DMSO and incubated for 90 minutes at 30° C. DMSO is present at 5% final concentration in the assay. Following laser excitation of sample wells at 320 nm, the fluorescence signal at 620 nm is collected for 400 ms following a 50 μs delay on a RUBYstar HTRF plate reader (BMG Labtechnologies). Raw RFU data is normalized to maximum (1.0 nM BACE/DMSO) and minimum (no enzyme/DMSO) RFU values. IC50 values are determined by nonlinear regression analysis (sigmoidal dose response, variable slope) of percent inhibition data with minimum and maximum values set to 0 and 100 percent respectively. Similar IC50s are obtained when using raw RFU data. The Ki values are calculated from the IC50 using the Cheng-Prusoff equation.

[4] = Table 2, male CD IGS rats, CSF three hours after administration, percent change vs vehicle cohort
[5] = Table 1, Ki calculated from IC50 with Cheng-Prusoff equation, read-out: BACE1 Ki

Chain of purified human autoBACE-2 (Q9Y5Z0 63-473): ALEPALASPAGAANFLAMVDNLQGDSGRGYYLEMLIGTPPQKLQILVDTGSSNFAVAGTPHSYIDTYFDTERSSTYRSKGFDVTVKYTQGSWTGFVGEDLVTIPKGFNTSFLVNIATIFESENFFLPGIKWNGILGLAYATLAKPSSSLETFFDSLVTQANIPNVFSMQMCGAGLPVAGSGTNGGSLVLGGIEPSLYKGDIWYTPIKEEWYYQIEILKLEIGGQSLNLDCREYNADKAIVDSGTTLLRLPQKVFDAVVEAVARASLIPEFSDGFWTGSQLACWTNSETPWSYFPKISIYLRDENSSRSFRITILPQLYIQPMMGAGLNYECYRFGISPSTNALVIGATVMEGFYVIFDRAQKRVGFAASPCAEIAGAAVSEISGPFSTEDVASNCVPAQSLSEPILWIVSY
Chain of Recombinant human soluble BACE-1 catalytic domain (P56817 75-416): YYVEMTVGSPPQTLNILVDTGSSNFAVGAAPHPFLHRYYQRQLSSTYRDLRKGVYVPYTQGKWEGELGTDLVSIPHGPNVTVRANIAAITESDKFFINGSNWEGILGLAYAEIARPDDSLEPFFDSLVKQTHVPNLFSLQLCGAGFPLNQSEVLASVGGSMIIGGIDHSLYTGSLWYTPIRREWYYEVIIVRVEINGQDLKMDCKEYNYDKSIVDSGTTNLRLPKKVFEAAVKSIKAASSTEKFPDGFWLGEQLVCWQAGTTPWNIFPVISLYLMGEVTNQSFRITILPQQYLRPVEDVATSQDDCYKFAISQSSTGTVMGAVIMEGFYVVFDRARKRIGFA

Ki ([2]; Table 3, comparator compounds of WO2011044181, read-out: BACE-1 Ki Nm) [nM] | Ki [3] [nM] | Ki [2, 5] [nM] | Ki ([2]; Table 2, read-out: BACE1 Ki) [nM] | Structure (SMILES) | change in vivo at 10 mg/kg ([1]; Table 3, comparator compounds of WO2011044181, rats, CSF at three hours, percent change vs vehicle) [%] | change in vivo at 10 mg/kg [1, 4] [%]
– | 3.5 | 2.6 | 2.6 | COc1cnc2c(Nc3ccc(F)c([C@]4(C)CS(=O)(=O)N(C)C(=N)N4)c3)nccc2n1 [Example 9, N-{4-fluoro-3-[(5R)-3-imino-2,5-dimethyl-1,1-dioxido-1,2,4-thiadiazinan-5-yl]phenyl}-2-methoxypyrido[3,4-b]pyrazin-5-amine] | – | -68
– | 1.8 | 5.2 | 5.2 | CN1C(=N)N[C@](C)(c2cc(Nc3nccc4nc(C(F)F)cnc34)ccc2F)CS1(=O)=O [Example 12, 2-(difluoromethyl)-N-{4-fluoro-3-[(5R)-3-imino-2,5-dimethyl-1,1-dioxido-1,2,4-thiadiazinan-5-yl]phenyl}pyrido[3,4-b]pyrazin-5-amine] | – | -44
– | 4.4 | 4.3 | 4.3 | COc1cnc2c(Nc3ccc(F)c([C@]4(C)CS(=O)(=O)N(C)C(=N)N4)c3)ncnc2c1 [Example 14, N-{4-fluoro-3-[(5R)-3-imino-2,5-dimethyl-1,1-dioxido-1,2,4-thiadiazinan-5-yl]phenyl}-7-methoxypyrido[3,2-d]pyrimidin-4-amine] | – | -55

The remaining lines, values behind:

Structure (SMILES) | Ki ([2]; Table 3, comparator compounds of WO2011044181, read-out: BACE-1 Ki Nm) [nM] | Ki [3] [nM] | Ki [2, 5] [nM] | Ki ([2]; Table 2, read-out: BACE1 Ki) [nM] | change in vivo at 10 mg/kg ([1]; Table 3, comparator compounds of WO2011044181, rats, CSF at three hours, percent change vs vehicle) [%] | change in vivo at 10 mg/kg [1, 4] [%]
COc1cccnc1Nc1ccnc([C@]2(C)CS(=O)(=O)N(C)C(=N)N2)c1 [165 (Table XXI), reference compound] | 48 | – | – | – | -11 | –
COc1cnc2c(Nc3ccc(F)c([C@]4(C)CS(=O)(=O)N(C)C(=N)N4)c3)nccc2c1 [Example 4, N-{4-fluoro-3-[(5R)-3-imino-2,5-dimethyl-1,1-dioxido-1,2,4-thiadiazinan-5-yl]phenyl}-3-methoxy-1,7-naphthyridin-8-amine] | – | 5.8 | 11.7 | 12 | – | -45
CN1C(=N)N[C@](C)(c2cc(Nc3nccc4cc(C#N)cnc34)ccc2F)CS1(=O)=O [Example 6, 8-({4-fluoro-3-[(5R)-3-imino-2,5-dimethyl-1,1-dioxido-1,2,4-thiadiazinan-5-yl]phenyl}amino)-1,7-naphthyridine-3-carbonitrile] | – | 0.46 | 1.31 | 1.3 | – | -50
CN1C(=N)N[C@](C)(c2cc(Nc3ncnc4cc(C#N)cnc34)ccc2F)CS1(=O)=O [Example 7, 4-({4-fluoro-3-[(5R)-3-imino-2,5-dimethyl-1,1-dioxido-1,2,4-thiadiazinan-5-yl]phenyl}amino)pyrido[3,2-d]pyrimidine-7-carbonitrile] | – | 3 | 3.2 | 3.2 | – | -21
CN1C(=N)N[C@](C)(c2cc(Nc3nccc4cc(F)cnc34)ccc2F)CS1(=O)=O [Example 8, 3-fluoro-N-{4-fluoro-3-[(5R)-3-imino-2,5-dimethyl-1,1-dioxido-1,2,4-thiadiazinan-5-yl]phenyl}-1,7-naphthyridin-8-amine] | – | 0.24 | 2.1 | 2.1 | – | -21
CN1C(=N)N[C@](C)(c2c(F)ccc(Nc3nccc4cc(C#N)cnc34)c2F)CS1(=O)=O [Example 11, 8-({2,4-difluoro-3-[(5R)-3-imino-2,5-dimethyl-1,1-dioxido-1,2,4-thiadiazinan-5-yl]phenyl}amino)-1,7-naphthyridine-3-carbonitrile] | – | 1.1 | 2.1 | 2.1 | – | -50
